The results in this text go back to US12295936B2, “Immunomodulating urea azalides” (Zoetis Services LLC, priority 2020, dated 2025).

Holding throughout (test): LPS-stimulated whole bovine blood assay, MSD cytokine detection
What all share (assay type): cell-based

In one experiment the test system is IL-1β. The conditions noted are these: overstimulation of IL-1β, LPS-stimulated bovine whole blood.
In another experiment the test system is IL-6. The settings on record: Bos taurus, LPS-stimulated bovine whole blood; read-out: IL-6 (IC50 μM). An excerpt:
In order to correlate RNA sequencing data to cytokine changes the whole blood assay was utilized. […] The enhancement result represents an overall stimulation of cytokine levels due to cellular stress or potential toxicity with increasing concentrations of the compound, representing a typical bell shape response curve for immunomodulatory activity.

In the next experiment the test system is TNF-α. The conditions noted are these: Bos taurus, LPS-stimulated bovine whole blood; read-out: TNF-α (IC50 μM).

A word on the IC50: it is the concentration that gives 50% inhibition. Take `CCCNC[C@]1(O)[C@H](C)O[C@@H](O[C@H]2[C@H](C)[C@@H](O[C@@H]3O[C@H](C)C[C@H](N(C)C(=O)Nc4ccccc4C)[C@H]3O)[C@](C)(O)C[C@@H](C)CN[C@H](C)[C@@H](O)[C@](C)(O)[C@@H](CC)OC(=O)[C@@H]2C)C[C@@]1(C)OC` [Example H-81, 1-((2S,3R,4S,6R)-2-(((2R,3S,4R,5R,8R,10R,11R,12S,13S,14R)-2-ethyl-3,4,10-trihydroxy-13-(((2R,4R,5S,6S)-5-hydroxy-4-methoxy-4,6-dimethyl-5-((propylamino)methyl)tetrahydro-2H-pyran-2-yl)oxy)-3,5,8,10,12,14-hexamethyl-15-oxo-1-oxa-6-azacyclopentadecan-11-yl)oxy)-3-hydroxy-6-methyltetrahydro-2H-pyran-4-yl)-1-methyl-3-(o-tolyl)urea]: the “IL-1β OS of LPS” value with IL-1β came to 39 µM. In addition, the IC50 in the experiment on IL-6 is 47 µM; in the experiment on TNF-α, > 250 µM.

In the case of `CCCNC[C@]1(O)[C@H](C)O[C@@H](O[C@H]2[C@H](C)[C@@H](O[C@@H]3O[C@H](C)C[C@H](N(C)C(=O)N4Cc5ccccc5C4)[C@H]3O)[C@](C)(O)C[C@@H](C)CN[C@H](C)[C@@H](O)[C@](C)(O)[C@@H](CC)OC(=O)[C@@H]2C)C[C@@]1(C)OC` [Example I-7, N-((2S,3R,4S,6R)-2-(((2R,3S,4R,5R,8R,10R,11R,12S,13S,14R)-2-ethyl-3,4,10-trihydroxy-13-(((2R,4R,5S,6S)-5-hydroxy-4-methoxy-4,6-dimethyl-5-((propylamino)methyl)tetrahydro-2H-pyran-2-yl)oxy)-3,5,8,10,12,14-hexamethyl-15-oxo-1-oxa-6-azacyclopentadecan-11-yl)oxy)-3-hydroxy-6-methyltetrahydro-2H-pyran-4-yl)-N-methylisoindoline-2-carboxamide], in the experiment with IL-1β, the “IL-1β OS of LPS” value stood at 6 µM. Also, the IC50 was 16 µM in the experiment with IL-6 and 8 µM in the experiment on TNF-α.

`CC[C@H]1OC(=O)[C@H](C)[C@@H](O[C@H]2C[C@@](C)(OC)[C@](O)(CN3CCN(C)CC3)[C@H](C)O2)[C@H](C)[C@@H](O[C@@H]2O[C@H](C)C[C@H](N(C)C(=O)NC3CCCCC3)[C@H]2O)[C@](C)(O)C[C@@H](C)CN[C@H](C)[C@@H](O)[C@]1(C)O` [Example J-1, 3-cyclohexyl-1-((2S,3R,4S,6R)-2-(((2R,3S,4R,5R,8R,10R,11R,12S,13S,14R)-2-ethyl-3,4,10-trihydroxy-13-(((2R,4R,5S,6S)-5-hydroxy-4-methoxy-4,6-dimethyl-5-((4-methylpiperazin-1-yl)methyl)tetrahydro-2H-pyran-2-yl)oxy)-3,5,8,10,12,14-hexamethyl-15-oxo-1-oxa-6-azacyclopentadecan-11-yl)oxy)-3-hydroxy-6-methyltetrahydro-2H-pyran-4-yl)-1-methylurea]: in the experiment with IL-1β, the “IL-1β OS of LPS” value was found to be 200 µM. For the same molecule, the IC50 in the experiment on IL-6 stood at 250 µM; with TNF-α it was 70 µM.

As to `CCNC(=O)N(C)[C@H]1C[C@@H](C)O[C@@H](O[C@@H]2[C@@H](C)[C@H](O[C@H]3C[C@@](C)(OC)[C@](O)(CN4CCN(C)CC4)[C@H](C)O3)[C@@H](C)C(=O)O[C@H](CC)[C@@](C)(O)[C@H](O)[C@@H](C)NC[C@H](C)C[C@@]2(C)O)[C@@H]1O` [Example J-2, 3-ethyl-1-((2S,3R,4S,6R)-2-(((2R,3S,4R,5R,8R,10R,11R,12S,13S,14R)-2-ethyl-3,4,10-trihydroxy-13-(((2R,4R,5S,6S)-5-hydroxy-4-methoxy-4,6-dimethyl-5-((4-methylpiperazin-1-yl)methyl)tetrahydro-2H-pyran-2-yl)oxy)-3,5,8,10,12,14-hexamethyl-15-oxo-1-oxa-6-azacyclopentadecan-11-yl)oxy)-3-hydroxy-6-methyltetrahydro-2H-pyran-4-yl)-1-methylurea], the “IL-1β OS of LPS” value in the experiment on IL-1β is >500 µM. In addition, the half-inhibitory concentration (IC50) with IL-6 and with TNF-α was > 500 µM each time.

As for `CC[C@H]1OC(=O)[C@H](C)[C@@H](O[C@H]2C[C@@](C)(OC)[C@](O)(CN3CCN(C)CC3)[C@H](C)O2)[C@H](C)[C@@H](O[C@@H]2O[C@H](C)C[C@H](N(C)C(N)=O)[C@H]2O)[C@](C)(O)C[C@@H](C)CN[C@H](C)[C@@H](O)[C@]1(C)O` [Example J-5, 1-((2S,3R,4S,6R)-2-(((2R,3S,4R,5R,8R,10R,11R,12S,13S,14R)-2-ethyl-3,4,10-trihydroxy-13-(((2R,4R,5S,6S)-5-hydroxy-4-methoxy-4,6-dimethyl-5-((4-methylpiperazin-1-yl)methyl)tetrahydro-2H-pyran-2-yl)oxy)-3,5,8,10,12,14-hexamethyl-15-oxo-1-oxa-6-azacyclopentadecan-11-yl)oxy)-3-hydroxy-6-methyltetrahydro-2H-pyran-4-yl)-1-methylurea], in the experiment on IL-1β, the “IL-1β OS of LPS” value was >500 µM. Also, the half-maximal inhibitory concentration (IC50) with IL-6 and with TNF-α was > 500 µM in each case.

For `CC[C@H]1OC(=O)[C@H](C)[C@@H](O[C@H]2C[C@@](C)(OC)[C@](O)(CN3CCN(C)CC3)[C@H](C)O2)[C@H](C)[C@@H](O[C@@H]2O[C@H](C)C[C@H](N(C)C(=O)Nc3ccc(N(C)C)cc3)[C@H]2O)[C@](C)(O)C[C@@H](C)CN[C@H](C)[C@@H](O)[C@]1(C)O` [Example J-6, 3-(4-(dimethylamino)phenyl)-1-((2S,3R,4S,6R)-2-(((2R,3S,4R,5R,8R,10R,11R,12S,13S,14R)-2-ethyl-3,4,10-trihydroxy-13-(((2R,4R,5S,6S)-5-hydroxy-4-methoxy-4,6-dimethyl-5-((4-methylpiperazin-1-yl)methyl)tetrahydro-2H-pyran-2-yl)oxy)-3,5,8,10,12,14-hexamethyl-15-oxo-1-oxa-6-azacyclopentadecan-11-yl)oxy)-3-hydroxy-6-methyltetrahydro-2H-pyran-4-yl)-1-methylurea], in the experiment with IL-1β, the “IL-1β OS of LPS” value is >500 µM. Further, the IC50 with IL-6 was > 500 µM; with TNF-α it was 225 µM.

As to `CC[C@H]1OC(=O)[C@H](C)[C@@H](O[C@H]2C[C@@](C)(OC)[C@](O)(CN3CCN(C)CC3)[C@H](C)O2)[C@H](C)[C@@H](O[C@@H]2O[C@H](C)C[C@H](N(C)C(=O)Nc3cccnc3)[C@H]2O)[C@](C)(O)C[C@@H](C)CN[C@H](C)[C@@H](O)[C@]1(C)O` [Example J-8, 1-((2S,3R,4S,6R)-2-(((2R,3S,4R,5R,8R,10R,11R,12S,13S,14R)-2-ethyl-3,4,10-trihydroxy-13-(((2R,4R,5S,6S)-5-hydroxy-4-methoxy-4,6-dimethyl-5-((4-methylpiperazin-1-yl)methyl)tetrahydro-2H-pyran-2-yl)oxy)-3,5,8,10,12,14-hexamethyl-15-oxo-1-oxa-6-azacyclopentadecan-11-yl)oxy)-3-hydroxy-6-methyltetrahydro-2H-pyran-4-yl)-1-methyl-3-(pyridin-3-yl)urea], in the experiment on IL-1β, the “IL-1β OS of LPS” value was >500 µM. Also, the IC50 with IL-6 and in the experiment with TNF-α was > 500 µM each time.

As to `CC[C@H]1OC(=O)[C@H](C)[C@@H](O[C@H]2C[C@@](C)(OC)[C@](O)(CN3CC(N(C)C)C3)[C@H](C)O2)[C@H](C)[C@@H](O[C@@H]2O[C@H](C)C[C@H](N(C)C(=O)N(C)c3ccccc3)[C@H]2O)[C@](C)(O)C[C@@H](C)CN[C@H](C)[C@@H](O)[C@]1(C)O` [Example J-26, 1-((2S,3R,4S,6R)-2-(((2R,3S,4R,5R,8R,10R,11R,12S,13S,14R)-13-(((2R,4R,5S,6S)-5-((3-(dimethylamino)azetidin-1-yl)methyl)-5-hydroxy-4-methoxy-4,6-dimethyltetrahydro-2H-pyran-2-yl)oxy)-2-ethyl-3,4,10-trihydroxy-3,5,8,10,12,14-hexamethyl-15-oxo-1-oxa-6-azacyclopentadecan-11-yl)oxy)-3-hydroxy-6-methyltetrahydro-2H-pyran-4-yl)-1,3-dimethyl-3-phenylurea], the “IL-1β OS of LPS” value with IL-1β worked out at 100 µM. The figures for the IC50 in the experiment with IL-6 and in the experiment with TNF-α were > 250 µM and 122 µM, respectively.

Turning to `CC[C@H]1OC(=O)[C@H](C)[C@@H](O[C@H]2C[C@@](C)(OC)[C@](O)(Cn3cncn3)[C@H](C)O2)[C@H](C)[C@@H](O[C@@H]2O[C@H](C)C[C@H](N(C)C(=O)N(C)c3ccccc3)[C@H]2O)[C@](C)(O)C[C@@H](C)CN[C@H](C)[C@@H](O)[C@]1(C)O` [Example J-27, 1-((2S,3R,4S,6R)-2-(((2R,3S,4R,5R,8R,10R,11R,12S,13S,14R)-13-(((2R,4R,5S,6S)-5-((1H-1,2,4-triazol-1-yl)methyl)-5-hydroxy-4-methoxy-4,6-dimethyltetrahydro-2H-pyran-2-yl)oxy)-2-ethyl-3,4,10-trihydroxy-3,5,8,10,12,14-hexamethyl-15-oxo-1-oxa-6-azacyclopentadecan-11-yl)oxy)-3-hydroxy-6-methyltetrahydro-2H-pyran-4-yl)-1,3-dimethyl-3-phenylurea], in the experiment on IL-1β, the “IL-1β OS of LPS” value is 250 µM. Further, the IC50 in the experiment on IL-6 was 124 µM; in the experiment with TNF-α it was 48 µM.

On to `CC[C@H]1OC(=O)[C@H](C)[C@@H](O[C@H]2C[C@@](C)(OC)[C@](O)(Cn3ccnn3)[C@H](C)O2)[C@H](C)[C@@H](O[C@@H]2O[C@H](C)C[C@H](N(C)C(=O)N(C)c3ccccc3)[C@H]2O)[C@](C)(O)C[C@@H](C)CN[C@H](C)[C@@H](O)[C@]1(C)O` [Example J-28, 1-((2S,3R,4S,6R)-2-(((2R,3S,4R,5R,8R,10R,11R,12S,13S,14R)-13-(((2R,4R,5S,6S)-5-((1H-1,2,3-triazol-1-yl)methyl)-5-hydroxy-4-methoxy-4,6-dimethyltetrahydro-2H-pyran-2-yl)oxy)-2-ethyl-3,4,10-trihydroxy-3,5,8,10,12,14-hexamethyl-15-oxo-1-oxa-6-azacyclopentadecan-11-yl)oxy)-3-hydroxy-6-methyltetrahydro-2H-pyran-4-yl)-1,3-dimethyl-3-phenylurea], for which the “IL-1β OS of LPS” value with IL-1β came out at 100 µM. Moreover, the half-maximal inhibitory concentration (IC50) came out at 152 µM in the experiment with IL-6 and 57 µM in the experiment on TNF-α.
